Experimental data reported in patent US10010589B2, “Modified therapeutic agents, stapled peptide lipid conjugates, and compositions thereof” (priority 2013, dated 2018).
pEC50: −log10 of the molar value. *1 amine or outer side, *2 acyl side, *3 side chain or, on linkers, in order; H or OH if unused. Where a SMILES comes first, the peptide text is derived from it. Bridges are numbered along the chain shown (N, C = ends). CH2CONH(CH2)4NHCOCH2 = O=C(C[*:1])NCCCCNC(=O)C[*:2]

Molecular target: T1, human Glucagon-like peptide 2 receptor (GLP-2R) (Homo sapiens, UniProt O95838)
T1 construct: expressed in transfected cells
T1 sequence (O95838 1-553): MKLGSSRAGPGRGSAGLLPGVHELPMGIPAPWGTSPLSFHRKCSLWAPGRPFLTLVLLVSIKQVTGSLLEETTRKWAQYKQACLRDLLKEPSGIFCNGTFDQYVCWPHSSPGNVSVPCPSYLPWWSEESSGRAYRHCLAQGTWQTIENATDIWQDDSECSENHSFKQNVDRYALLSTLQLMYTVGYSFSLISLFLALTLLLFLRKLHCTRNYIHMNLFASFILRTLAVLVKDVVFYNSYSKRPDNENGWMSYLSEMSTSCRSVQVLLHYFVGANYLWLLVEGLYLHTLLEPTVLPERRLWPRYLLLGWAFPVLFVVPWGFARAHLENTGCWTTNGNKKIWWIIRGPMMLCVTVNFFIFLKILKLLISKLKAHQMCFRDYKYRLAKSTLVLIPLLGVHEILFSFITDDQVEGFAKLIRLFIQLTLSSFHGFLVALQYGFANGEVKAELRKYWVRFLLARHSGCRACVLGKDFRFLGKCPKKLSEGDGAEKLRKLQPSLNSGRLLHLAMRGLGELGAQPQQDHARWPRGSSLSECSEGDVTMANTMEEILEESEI
Test: GLP-2R CRE luciferase assay (receptor-mediated cAMP synthesis)
Assay type: cell-based
Experimental: CREB responsive luciferase stable HEK 293 cell line overexpressing human glucagon receptor (GCGR), glucagon-like peptide 1 receptor (GLP-1R), Glucose-dependent insulinotropic polypeptide receptor (GIPR), or Glucagon-like peptide 2 receptor (GLP-2R) was generated as follows.
HEK293 cells were infected with lent virus encoding firefly luciferase gene under the control of CRE promoter, as described in the manual (Qiagen, Netherlands) and then were selected using 1 μg/mL puromycin (Life technologies, Carlsbad) for 1 week. The survived cells were named as CRE-HEK293, expanded and then transfected with a G418 selective mammalian expression plasmid encoding human GCGR, GLP-1R, GIPR or GLP-2R. In brief, GCGR, GLP-1R, GIPR, or GLP-2R plasmid was transfected into CRE-HEK293 cells using Lipofectamine 2000 and selected with 400 μg/mL geneticin (Life technologies, Carlsbad, Calif.). […]
HEK293-GCGR-CRE, HEK293-GLP-1R-CRE, HEK293-GIPR-CRE, and HEK293-GLP-2R-CRE cells were seeded in a white 384-well plate at a density of 5,000 cells per well and cultured for 24 hours. […] On the next day, 10 μl of Bright-Glo reagent (Promega, Madison, Wis.) were added into each well and firefly luminescence was determined using an Envision multilabel plate reader (PerkinElmer, Waltham, Mass.). EC50 of each peptide was calculated using GraphPad Prism 6 software (GraphPad, San Diego, Calif.).

In the case of CC[C@H](C)[C@@H]1NC(=O)[C@H](Cc2ccccc2)NC(=O)[C@H](CC(=O)O)NC(=O)[C@H](CCCNC(=N)N)NC(=O)[C@H](C)NC(=O)[C@H](C)NC(=O)[C@H](CC(C)C)NC(=O)[C@@H](NC(=O)[C@H](CC(=O)O)NC(=O)[C@H](CC(C)C)NC(=O)[C@@H](NC(=O)[C@@H](NC(=O)[C@H](CC(N)=O)NC(=O)[C@H](CCSC)NC(=O)[C@H](CCC(=O)O)NC(=O)[C@H](CC(=O)O)NC(=O)[C@H](CO)NC(=O)[C@H](Cc2ccccc2)NC(=O)[C@H](CO)NC(=O)CNC(=O)[C@H](CC(=O)O)NC(=O)CNC(=O)[C@@H](N)Cc2c[nH]cn2)[C@@H](C)O)[C@@H](C)CC)CSCC(=O)NCCCCNC(=O)CSC[C@@H](C(=O)N[C@@H](Cc2c[nH]c3ccccc23)C(=O)N[C@@H](CC(C)C)C(=O)N[C@H](C(=O)N[C@@H](CCC(N)=O)C(=O)N[C@H](C(=O)N[C@@H](CCCCN)C(=O)N[C@H](C(=O)N[C@H](C(=O)N[C@@H](CC(=O)O)C(N)=O)[C@@H](C)O)[C@@H](C)CC)[C@@H](C)O)[C@@H](C)CC)NC1=O [mTA52] (H-HGDGSFSDEMNTILDCLAARDFICWLIQTKITD-NH2; linker 16-24 via CH2CONH(CH2)4NHCOCH2), the pEC50 was 8.25.
